Reference: PubChem BioAssay AID1963444 (Molecular Pharmacology Branch, DTP, NCI, 2024)
Where “and” joins values, the source holds several entries; their conditions need not be identical. Equal entries are not always repeated.

Test system: HSSY-II complex spheroid growth, percent test/control
Assay: Anticancer human tumor HSSY-II cell line growth inhibition [Asc];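 further: spheroids exposed to drug for 7 days before reading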
Conditions: for viability, T/C: stronger effect = lower value
Procedure, shortened: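 Complex spheroids combining tumor cells with HUVEC endothelial cells and human MSCs, at 37 degrees C, 5% CO2; agents tested alone or combined, half-log dilutions from at or near clinical Cmax, or 10 microM if Cmax unknown.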

[1] = curve of first compound, second compound 0.03 µM
[2] = curve of first compound, second compound 0.0949 µM
[3] = curve of first compound, second compound 0.3 µM
[4] = curve of first compound, second compound 0.949 µM
[5] = curve of first compound, second compound 3 µM

## O=C(c1cc(Cc2n[nH]c(=O)c3ccccc23)ccc1F)N1CCN(C(=O)C2CC2)CC1 + Cc1c(S(C)(=O)=O)c(-c2cc(F)cc(N3CCN(c4ccc(NS(=O)(=O)c5ccc(NC(CCN6CCC(C(=O)OCCCP(=O)(O)O)CC6)CSc6ccccc6)c(S(=O)(=O)C(F)(F)F)c5)cc4)CC3)c2)c(-c2ccc(Cl)cc2)n1C(C)C
Curve of first compound, second compound 0.1 µM
  IC50: 2440 nM
Curve of first compound, second compound 0.316 µM
  IC50: 1960 nM
Curve of first compound, second compound 1 µM
  IC50: 1500 nM
Curve of first compound, second compound 3.16 µM
  IC50: 1810 nM
Curve of first compound, second compound 10 µM
  IC50: 1460 nM
Second compound 0.1 µM, first compound 0.0316 µM
  viability, T/C: 103%
Second compound 0.1 µM, first compound 0.1 µM
  viability, T/C: 98.9%
Second compound 0.1 µM, first compound 0.316 µM
  viability, T/C: 93%
Second compound 0.1 µM, first compound 1 µM
  viability, T/C: 77.8%
Second compound 0.1 µM, first compound 3.16 µM
  viability, T/C: 41.7%
Second compound 0.1 µM, first compound 10 µM
  viability, T/C: 8.94%
Second compound 0.316 µM, first compound 0.0316 µM
  viability, T/C: 82.7%
Second compound 0.316 µM, first compound 0.1 µM
  viability, T/C: 88.3%
Second compound 0.316 µM, first compound 0.316 µM
  viability, T/C: 86.8%
Second compound 0.316 µM, first compound 1 µM
  viability, T/C: 78.1%
Second compound 0.316 µM, first compound 3.16 µM
  viability, T/C: 29.8%
Second compound 0.316 µM, first compound 10 µM
  viability, T/C: 6.49%
Second compound 1 µM, first compound 0.0316 µM
  viability, T/C: 81.8%
Second compound 1 µM, first compound 0.1 µM
  viability, T/C: 92.8%
Second compound 1 µM, first compound 0.316 µM
  viability, T/C: 76.2%
Second compound 1 µM, first compound 1 µM
  viability, T/C: 64.1%
Second compound 1 µM, first compound 3.16 µM
  viability, T/C: 26.4%
Second compound 1 µM, first compound 10 µM
  viability, T/C: 5.63%
Second compound 3.16 µM, first compound 0.0316 µM
  viability, T/C: 93.2%
Second compound 3.16 µM, first compound 0.1 µM
  viability, T/C: 92%
Second compound 3.16 µM, first compound 0.316 µM
  viability, T/C: 82.5%
Second compound 3.16 µM, first compound 1 µM
  viability, T/C: 76%
Second compound 3.16 µM, first compound 3.16 µM
  viability, T/C: 26.5%
Second compound 3.16 µM, first compound 10 µM
  viability, T/C: 3.28%
Second compound 10 µM, first compound 0.0316 µM
  viability, T/C: 83.5%
Second compound 10 µM, first compound 0.1 µM
  viability, T/C: 90.2%
Second compound 10 µM, first compound 0.316 µM
  viability, T/C: 78.8%
Second compound 10 µM, first compound 1 µM
  viability, T/C: 66.7%
Second compound 10 µM, first compound 3.16 µM
  viability, T/C: 16.9%
Second compound 10 µM, first compound 10 µM
  viability, T/C: 2.61%

## Cc1c(S(C)(=O)=O)c(-c2cc(F)cc(N3CCN(c4ccc(NS(=O)(=O)c5ccc(NC(CCN6CCC(C(=O)OCCCP(=O)(O)O)CC6)CSc6ccccc6)c(S(=O)(=O)C(F)(F)F)c5)cc4)CC3)c2)c(-c2ccc(Cl)cc2)n1C(C)C (stereo not given)
Compound alone, run of 10/11/2022
  IC50: > 10000 nM and 2630 nM

## NC(=O)C(=Cn1cnc(-c2cc(C(F)(F)F)cc(C(F)(F)F)c2)n1)c1cncnc1
Compound 0.000949 µM
  viability, T/C: 97.2% and 85.3% and 90.9%
Compound 0.003 µM
  viability, T/C: 94.1% and 76.9% and 88.4%
Compound 0.00949 µM
  viability, T/C: 67.6% and 69.8% and 61.6%
Compound 0.03 µM
  viability, T/C: 46.4% and 29.8% and 40.1%
Compound 0.0949 µM
  viability, T/C: 18.6% and 11.1% and 9.98%
Compound 0.3 µM
  viability, T/C: 1.34% and 1.15% and 1.13%
Curve of compound
  IC50: 23.9 nM and 16.6 nM and 17.7 nM

## O=C(c1ccc(F)c(F)c1Nc1ccc(I)cc1F)N1CC(O)([C@@H]2CCCCN2)C1 + CCN1C(C(=O)NC23CCC(C(=O)O)(CC2)CC3)C(c2cccc(Cl)c2F)C2(C(=O)Nc3cc(Cl)ccc32)C12CCCCC2
[1]
  IC50: 485 nM
[2]
  IC50: 186 nM
[3]
  IC50: < 3.16 nM
[4]
  IC50: < 3.16 nM
[5]
  IC50: < 3.16 nM
Second compound 0.03 µM, first compound 0.00316 µM
  viability, T/C: 101%
Second compound 0.03 µM, first compound 0.01 µM
  viability, T/C: 96.6%
Second compound 0.03 µM, first compound 0.0316 µM
  viability, T/C: 77.7%
Second compound 0.03 µM, first compound 0.1 µM
  viability, T/C: 98.5%
Second compound 0.03 µM, first compound 0.316 µM
  viability, T/C: 66.7%
Second compound 0.03 µM, first compound 1 µM
  viability, T/C: 21.7%
Second compound 0.0949 µM, first compound 0.00316 µM
  viability, T/C: 66.7%
Second compound 0.0949 µM, first compound 0.01 µM
  viability, T/C: 70.8%
Second compound 0.0949 µM, first compound 0.0316 µM
  viability, T/C: 67.9%
Second compound 0.0949 µM, first compound 0.1 µM
  viability, T/C: 59.9%
Second compound 0.0949 µM, first compound 0.316 µM
  viability, T/C: 41.2%
Second compound 0.0949 µM, first compound 1 µM
  viability, T/C: 15.8%
Second compound 0.3 µM, first compound 0.00316 µM
  viability, T/C: 30.3%
Second compound 0.3 µM, first compound 0.01 µM
  viability, T/C: 25.7%
Second compound 0.3 µM, first compound 0.0316 µM
  viability, T/C: 34.2%
Second compound 0.3 µM, first compound 0.1 µM
  viability, T/C: 28.1%
Second compound 0.3 µM, first compound 0.316 µM
  viability, T/C: 24.2%
Second compound 0.3 µM, first compound 1 µM
  viability, T/C: 7.55%
Second compound 0.949 µM, first compound 0.00316 µM
  viability, T/C: 6.94%
Second compound 0.949 µM, first compound 0.01 µM
  viability, T/C: 9.74%
Second compound 0.949 µM, first compound 0.0316 µM
  viability, T/C: 7.24%
Second compound 0.949 µM, first compound 0.1 µM
  viability, T/C: 6.73%
Second compound 0.949 µM, first compound 0.316 µM
  viability, T/C: 5.75%
Second compound 0.949 µM, first compound 1 µM
  viability, T/C: 2.34%
Second compound 3 µM, first compound 0.00316 µM
  viability, T/C: 2.22%
Second compound 3 µM, first compound 0.01 µM
  viability, T/C: 2.17%
Second compound 3 µM, first compound 0.0316 µM
  viability, T/C: 2.09%
Second compound 3 µM, first compound 0.1 µM
  viability, T/C: 2.02%
Second compound 3 µM, first compound 0.316 µM
  viability, T/C: 1.16%
Second compound 3 µM, first compound 1 µM
  viability, T/C: 0.62%

## CCN1CCN(Cc2ccc(Nc3ncc(F)c(-c4cc(F)c5nc(C)n(C(C)C)c5c4)n3)nc2)CC1
Compound 0.00316 µM
  viability, T/C: 102% and 74.4% and 98.4%
Compound 0.01 µM
  viability, T/C: 94.4% and 70.5% and 78.7%
Compound 0.0316 µM
  viability, T/C: 65.6% and 73.6% and 78.9%
Compound 0.1 µM
  viability, T/C: 59.6% and 44.7% and 74.7%
Compound 0.316 µM
  viability, T/C: 49.6% and 35.2% and 46.9%
Compound 1 µM
  viability, T/C: 27.2% and 30.8% and 28.5%
Curve of compound
  IC50: 201 nM and 80.5 nM and 328 nM

## NC(=O)C(=Cn1cnc(-c2cc(C(F)(F)F)cc(C(F)(F)F)c2)n1)c1cncnc1 + CCN1C(C(=O)NC23CCC(C(=O)O)(CC2)CC3)C(c2cccc(Cl)c2F)C2(C(=O)Nc3cc(Cl)ccc32)C12CCCCC2
[1]
  IC50: 10.5 nM
[2]
  IC50: 3.06 nM
[3]
  IC50: < 0.949 nM
[4]
  IC50: < 0.949 nM
[5]
  IC50: < 0.949 nM
Second compound 0.03 µM, first compound 0.000949 µM
  viability, T/C: 97.5%
Second compound 0.03 µM, first compound 0.003 µM
  viability, T/C: 76%
Second compound 0.03 µM, first compound 0.00949 µM
  viability, T/C: 51.1%
Second compound 0.03 µM, first compound 0.03 µM
  viability, T/C: 31.9%
Second compound 0.03 µM, first compound 0.0949 µM
  viability, T/C: 7.28%
Second compound 0.03 µM, first compound 0.3 µM
  viability, T/C: 0.44%
Second compound 0.0949 µM, first compound 0.000949 µM
  viability, T/C: 63.5%
Second compound 0.0949 µM, first compound 0.003 µM
  viability, T/C: 52.7%
Second compound 0.0949 µM, first compound 0.00949 µM
  viability, T/C: 26.6%
Second compound 0.0949 µM, first compound 0.03 µM
  viability, T/C: 15.9%
Second compound 0.0949 µM, first compound 0.0949 µM
  viability, T/C: 2.85%
Second compound 0.0949 µM, first compound 0.3 µM
  viability, T/C: 0.23%
Second compound 0.3 µM, first compound 0.000949 µM
  viability, T/C: 21.4%
Second compound 0.3 µM, first compound 0.003 µM
  viability, T/C: 18%
Second compound 0.3 µM, first compound 0.00949 µM
  viability, T/C: 11.6%
Second compound 0.3 µM, first compound 0.03 µM
  viability, T/C: 3.8%
Second compound 0.3 µM, first compound 0.0949 µM
  viability, T/C: 0.31%
Second compound 0.3 µM, first compound 0.3 µM
  viability, T/C: 0.12%
Second compound 0.949 µM, first compound 0.000949 µM
  viability, T/C: 7.25%
Second compound 0.949 µM, first compound 0.003 µM
  viability, T/C: 5.2%
Second compound 0.949 µM, first compound 0.00949 µM
  viability, T/C: 2.01%
Second compound 0.949 µM, first compound 0.03 µM
  viability, T/C: 0.49%
Second compound 0.949 µM, first compound 0.0949 µM
  viability, T/C: 0.03%
Second compound 0.949 µM, first compound 0.3 µM
  viability, T/C: 0.14%
Second compound 3 µM, first compound 0.000949 µM
  viability, T/C: 2.04%
Second compound 3 µM, first compound 0.003 µM
  viability, T/C: 1.1%
Second compound 3 µM, first compound 0.00949 µM
  viability, T/C: 0.3%
Second compound 3 µM, first compound 0.03 µM
  viability, T/C: 0.2%
Second compound 3 µM, first compound 0.0949 µM
  viability, T/C: 0.16%
Second compound 3 µM, first compound 0.3 µM
  viability, T/C: 0.26%
